Reference: publication PMC8161687, “Cytosine-5 methylation-directed construction of a Au nanoparticle-based nanosensor for simultaneous detection of multiple DNA methyltransferases at the single-molecule level” (Chemical Science, 2020)

Target: T1, CpG methyltransferase (M.SssI MTase) (Spiroplasma monobiae, UniProt P15840)
T1 construct: gene sssIM
Test: coupled GlaI / RNase HII cleavage, Cy5 release from AuNP, single-molecule TIRF counting
Format: biochemical
Settings: 600 nM hairpin DNA HS1; 320 μM SAM; 100 U/mL M.SssI; NEBuffer 2; 37 °C, 2 h; coupled assay; free nucleoside added, covalent mechanism only cited

T1 sequence (P15840 whole entry): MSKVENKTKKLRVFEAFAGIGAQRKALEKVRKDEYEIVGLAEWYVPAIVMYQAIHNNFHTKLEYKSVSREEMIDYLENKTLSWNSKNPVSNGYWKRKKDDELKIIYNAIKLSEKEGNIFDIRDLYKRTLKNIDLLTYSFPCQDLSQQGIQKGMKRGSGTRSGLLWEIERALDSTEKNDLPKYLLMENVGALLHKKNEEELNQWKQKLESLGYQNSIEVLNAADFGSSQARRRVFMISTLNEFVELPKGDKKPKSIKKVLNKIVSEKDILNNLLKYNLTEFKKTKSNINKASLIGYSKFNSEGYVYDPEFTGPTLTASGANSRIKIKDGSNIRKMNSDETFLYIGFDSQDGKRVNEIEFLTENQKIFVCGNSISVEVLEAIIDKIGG

Nc1ncn([C@H]2C[C@H](O)[C@@H](CO)O2)c(=O)n1 [decitabine]
IC50: 640 nM
